# Literature values in US20110091889A1, “CENTROSOME-ASSAY” (4SC AG, priority 2008, published 2011).
# Target: T1, Eg5 (Homo sapiens, UniProt P52732)
# T1 sequence (P52732 1-1056): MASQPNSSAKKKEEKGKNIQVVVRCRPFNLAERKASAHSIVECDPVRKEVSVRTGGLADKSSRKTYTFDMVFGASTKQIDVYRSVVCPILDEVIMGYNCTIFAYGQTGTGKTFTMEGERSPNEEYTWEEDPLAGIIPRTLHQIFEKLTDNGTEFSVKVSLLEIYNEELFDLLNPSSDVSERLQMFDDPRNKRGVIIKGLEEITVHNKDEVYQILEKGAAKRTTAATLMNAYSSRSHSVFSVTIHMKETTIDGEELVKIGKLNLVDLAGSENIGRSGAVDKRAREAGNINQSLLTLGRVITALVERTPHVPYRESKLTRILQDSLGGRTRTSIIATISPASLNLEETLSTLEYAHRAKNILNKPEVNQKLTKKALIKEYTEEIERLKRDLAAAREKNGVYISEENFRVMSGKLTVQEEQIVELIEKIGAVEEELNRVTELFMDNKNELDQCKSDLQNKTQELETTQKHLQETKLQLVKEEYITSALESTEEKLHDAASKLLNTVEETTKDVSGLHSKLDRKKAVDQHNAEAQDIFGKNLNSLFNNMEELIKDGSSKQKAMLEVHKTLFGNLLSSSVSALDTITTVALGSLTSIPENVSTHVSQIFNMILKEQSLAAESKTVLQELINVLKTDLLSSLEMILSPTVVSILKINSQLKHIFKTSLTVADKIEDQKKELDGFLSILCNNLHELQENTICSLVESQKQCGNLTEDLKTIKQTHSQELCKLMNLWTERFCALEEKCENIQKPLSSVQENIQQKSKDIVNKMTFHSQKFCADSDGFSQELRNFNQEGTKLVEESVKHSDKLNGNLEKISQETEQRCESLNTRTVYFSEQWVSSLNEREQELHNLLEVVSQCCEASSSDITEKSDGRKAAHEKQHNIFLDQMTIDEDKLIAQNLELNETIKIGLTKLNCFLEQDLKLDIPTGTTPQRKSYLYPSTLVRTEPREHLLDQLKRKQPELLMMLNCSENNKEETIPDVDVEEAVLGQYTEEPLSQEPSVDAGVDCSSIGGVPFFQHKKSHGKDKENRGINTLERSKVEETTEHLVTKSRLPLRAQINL
# Conditions: as compared to the (R)-enantiomer; in vitro and in vivo
smiles,measurement,value
CCOC(=O)C1=C(C)NC(=S)N[C@H]1c1cccc(O)c1 [(S)-monastrol],relative potency as inhibitor of Eg5 activity,more potent inhibitor of Eg5 activity
